According to patent USRE50724E1, “4-membered ring carboxamides used as nematicides” (SYNGENTA CROP PROTECTION AG, priority 2013, dated 2026):

Columns and labels:
[1] = test system: Meloidogyne spp.; assay: Meloidogyne spp. (root-knot nematode), nematicide, contact activity, preventive: cucumber seed in filter paper pouch; type: in vivo; settings: 288 h, cucumber cv. Toshka seed in pouch, 3000 eggs, twelve days, read-out: reduction of galling compared to the untreated control
Procedure: Meloidogyne spp. (Root-Knot Nematode) Nematicide, Contact Activity, Preventive. Filter papers (9 cm×4.5 cm) with a small pocket were placed into plastic pouches (12 cm×6 cm). One cucumber cv. Toshka seed was placed in the centre of the filter paper pocket of all the pouches needed for a test. The cucumber seeds in the pouches were treated with test solutions at 200 ppm by pipetting the solution directly over the cucumber seed in the filter paper pocket in the pouch. Prior to application, the compound solution was prepared at twice the concentration required and the egg suspension is prepared with FORL nutrient solution with 3000 eggs/0.5 ml. After applying all the treatments, 3000 eggs (in 0.5 ml of FORL nutrient solution) were pipetted into the pouches. The pouches were incubated in a moist chamber for twelve days and watered regularly to maintain good filter paper moisture essential for the growing cucumber root system. After this period, the filter paper containing the germinated cucumber seedling was removed from the plastic pouch to assess the number of galls caused by Meloidogyne spp. per root system. Phytotoxicity was measured as a reduction of growth of the emerged cucumber seedling in comparison to the control.

[2] = test system: Heterodera schachtii; assay: Heterodera schachtii (sugar beet cyst nematode), nematicide, contact activity: juvenile paralysis in 16-well assay plates; type: in vivo; settings: 200 ppm, approx. 500 juveniles per well, 24 hours incubation at 25° C. in darkness, read-out: nematode immobilization compared to the untreated control
Procedure: Heterodera schachtii (Sugar Beet Cyst Nematode), Nematicide, Contact Activity
The tested application rate of each compound was 200 ppm. All solutions were brought to a concentration of 400 ppm, respectively, as they were subsequently diluted by adding the equivalent amount of water containing juvenile nematodes. After preparation of the suspensions, 1 ml of each suspension and concentration was transferred to 16-well assay plates with a total of three replicates per treatment. Approximately 500 juveniles of Heterodera schachtii were added in 1 ml of water to each well. Nematodes in water served as controls. The plates were placed in a dark box and stored at room temperature. Nematode paralysis was determined after 24 hours incubation at 25° C. in darkness.

SMILES | pest or weed control at 200 ppm [1] [%] | pest or weed control at 200 ppm [2] [%]
Cc1occc1C(=O)N[C@H]1CC[C@H]1c1ccc(Cl)cc1Cl [Compound 61.64, N-[(1S,2S)-2-(2,4-dichlorophenyl)cyclobutyl]-2-methylfuran-3-carboxamide] | > 80 | > 75
O=C(N[C@H]1CC[C@H]1c1ccc(Cl)cc1Cl)c1c(F)cccc1Cl [Compound 61.66, 2-chloro-N-[(1S,2S)-2-(2,4-dichlorophenyl)cyclobutyl]-6-fluorobenzamide] | > 80 | > 75
COc1cccc(F)c1C(=O)N[C@H]1CC[C@H]1c1ccc(Cl)cc1Cl [Compound 61.68, N-[(1S,2S)-2-(2,4-dichlorophenyl)cyclobutyl]-2-fluoro-6-methoxybenzamide] | > 80 | > 75
Cc1cccc(F)c1C(=O)N[C@H]1CC[C@H]1c1ccc(Cl)cc1Cl [Compound 61.69, N-[(1S,2S)-2-(2,4-dichlorophenyl)cyclobutyl]-2-fluoro-6-methylbenzamide] | > 80 | > 75
Cn1cccc1C(=O)N[C@H]1CC[C@H]1c1ccc(Cl)cc1Cl [Compound 61.76, N-[(1S,2S)-2-(2,4-dichlorophenyl)cyclobutyl]-1-methylpyrrole-2-carboxamide] | > 80 | > 75
Cn1cc(C(=O)N[C@H]2CC[C@H]2c2ccc(Cl)cc2Cl)c(C(F)F)n1 [Compound 61.77, N-[(1S,2S)-2-(2,4-dichlorophenyl)cyclobutyl]-3-(difluoromethyl)-1-methylpyrazole-4-carboxamide] | > 80 | > 75
O=C(N[C@H]1CC[C@H]1c1ccc(Cl)cc1Cl)c1ccsc1Cl [Compound 61.95, 2-chloro-N-[(1S,2S)-2-(2,4-dichlorophenyl)cyclobutyl]thiophene-3-carboxamide] | > 80 | > 75
